According to ChEMBL document CHEMBL4665668, “Design and development of molecular hybrids of 2-pyridylpiperazine and 5-phenyl-1,3,4-oxadiazoles as potential multifunctional agents to treat Alzheimer's disease” (Eur J Med Chem, 2019):
The source made the active and inactive calls. No cut-off for these calls is given here.

Tests used:
[1] = Cmax in Wistar rat at 10 mg/kg, po measured up to 72 hrs by HPLC analysis; format: ADME, organism-based; parameters: route oral, time 72 hrs, dose 10 mg/kg; conditions: in vivo
Acetylcholinesterase [2] = target: T1, Acetylcholinesterase (Homo sapiens, UniProt P22303); assay: Mixed type inhibition of human erythrocytes AChE assessed as decrease in Vmax using varying levels of acetylthiocholine iodide substrate by Lineweaver-Burk plot analysis; conditions: Erythrocyte
Acetylcholinesterase [3] = target: T1, Acetylcholinesterase; assay: Mixed type inhibition of human erythrocytes AChE assessed as increase in Km using varying levels of acetylthiocholine iodide substrate by Lineweaver-Burk plot analysis; format: tissue-based; conditions: Erythrocyte
[4] = Permeability of the compound in PBS/EtOH buffer (7:3) at 25 ug/ml after 18 hrs by PAMPA-BBB assay
[5] = Acute toxicity in po dosed Wistar rat assessed as maximum tolerated dose by OCED guideline method; format: organism-based; conditions: in vivo
[6] = MRT in Wistar rat at 10 mg/kg, po measured up to 72 hrs by HPLC analysis; format: ADME, organism-based; conditions: in vivo
Cholinesterase = Cholinesterase (Homo sapiens, UniProt P06276); assay: Inhibition of human serum BChE using butyrylthiocholine iodide as substrate preincubated for 10 mins followed by substrate addition by Ellman's method; format: cell-free
Rattus norvegicus [7] = assay: Cognitive enhancing effect in scopolamine-induced Wistar rat model of amnesia assessed as increase in spontaneous alteration at 5 to 10 mg/kg, po pretreated for 7 days followed by scopolamine challenge and measured after 30 mins by Y-maze test; format: functional, organism-based; conditions: dose mg/kg 5-10, time 7.0 day
[8] = target: Amyloid-beta precursor protein (Homo sapiens) (UniProt P05067); assay: Inhibition of amyloid beta (unknown origin) self aggregation assessed as roughness index at 10 uM after 10 days by atomic force microscopy; conditions: time 10.0 day
Rattus norvegicus [9] = assay: Ex vivo inhibition of AChE in brain of scopolamine-induced Wistar rat model of amnesia at 5 to 10 mg/kg, po pretreated for 7 days followed by scopolamine challenge and measured after 30 mins using acetylthiocholine iodide as substrate by Ellman's method; format: functional, organism-based; conditions: dose mg/kg 5-10, time 7.0 day
[10] = target: Amyloid-beta precursor protein (Homo sapiens) (UniProt P05067); assay: Inhibition of amyloid beta (1 to […]) (unknown origin) self-induced aggregation after 48 hrs by Thioflavin T based fluorometric assay; conditions: dose microM 5-20, time 48.0 hrs
[11] = target: Amyloid-beta precursor protein (Homo sapiens) (UniProt P05067); assay: Inhibition of amyloid beta (unknown origin) self aggregation assessed as maximum peak height at 10 uM after 10 days by atomic force microscopy; conditions: time 10.0 day
[12] = Half life in Wistar rat at 10 mg/kg, po measured up to 72 hrs by HPLC analysis; format: ADME, organism-based; conditions: in vivo
[13] = Tmax in Wistar rat at 10 mg/kg, po measured up to 72 hrs by HPLC analysis; format: ADME, organism-based; conditions: in vivo
[14] = target: Amyloid-beta precursor protein (Homo sapiens) (UniProt P05067); conditions: dose microM 5-20, time 48.0 hrs
Rattus norvegicus [15] = assay: Improvement in learning and spatial memory in icv infused amyloid beta (1 to 42)-induced rat model of Alzheimer's disease assessed as reduction in escape latency at 10 mg/kg, po administered daily for 7 days starting from 7 days post surgery and measured daily for 5 days by Morris water maze test; format: functional, organism-based; conditions: time 12.0 day
Rattus norvegicus [16] = assay: Antioxidant activity in scopolamine-induced Wistar rat model of amnesia assessed as decrease in MDA level at 2.5 to 10 mg/kg, po pretreated for 7 days followed by scopolamine challenge and measured after 30 mins […]; format: functional, organism-based; conditions: dose mg/kg 2.5-10, time 7.0 day
Rattus norvegicus [17] = assay: Cognitive enhancing effect in po dosed scopolamine-induced Wistar rat model of amnesia assessed as increase in spontaneous alteration pretreated for 7 days followed by scopolamine challenge and measured after 30 mins by Y-maze test; format: functional, organism-based; conditions: dose mg/kg 2.5-10, time 7.0 day
Acetylcholinesterase [18] = target: T1, Acetylcholinesterase; assay: Mixed type inhibition of human erythrocytes AChE using varying levels of acetylthiocholine iodide substrate by Dixon plot analysis; format: tissue-based, Erythrocyte
Rattus norvegicus [19] = assay: Improvement in learning and spatial memory in icv infused amyloid beta (1 to 42)-induced rat model of Alzheimer's disease assessed as increase in number of platform crossing at 10 mg/kg, po administered daily for 7 days starting from 7 days post surgery and measured after 6 days by Morris water maze test; format: functional, organism-based; conditions: time 13.0 day
[20] = AUC (0 to 24 hrs) in Wistar rat at 10 mg/kg, po measured up to 72 hrs by HPLC analysis; format: ADME, organism-based; parameters: route oral, dose 10 mg/kg, time 72 hrs; conditions: in vivo
[21] = Acute toxicity in Wistar rat assessed as abnormal signs at 100 to 500 mg/kg, po measured up to 14 days by OCED guideline method; format: organism-based; conditions: in vivo, 336 h, dose 100-500 mg/kg, time 14 day
Rattus norvegicus [22] = assay: Antioxidant activity in scopolamine-induced Wistar rat model of amnesia assessed as increase in SOD level at 2.5 to 10 mg/kg, po pretreated for 7 days followed by scopolamine challenge and measured after 30 mins […]; format: functional, organism-based; conditions: dose mg/kg 2.5-10, time 7.0 day
SH-SY5Y = assay: Neuroprotective activity against amyloid beta (1 to 42)-induced oxidative stress in human SH-SY5Y cells assessed as effect on cell viability at 10 to 80 uM measured after 24 hrs by MTT assay (reference value: 61 %); format: functional; conditions: dose microM 10-80
Acetylcholinesterase [23] = target: T1, Acetylcholinesterase; conditions: dose microM 5-20, time 48.0 hrs

Chain of Amyloid-beta precursor protein (Homo sapiens) (P05067 whole entry, the tested form may be a part): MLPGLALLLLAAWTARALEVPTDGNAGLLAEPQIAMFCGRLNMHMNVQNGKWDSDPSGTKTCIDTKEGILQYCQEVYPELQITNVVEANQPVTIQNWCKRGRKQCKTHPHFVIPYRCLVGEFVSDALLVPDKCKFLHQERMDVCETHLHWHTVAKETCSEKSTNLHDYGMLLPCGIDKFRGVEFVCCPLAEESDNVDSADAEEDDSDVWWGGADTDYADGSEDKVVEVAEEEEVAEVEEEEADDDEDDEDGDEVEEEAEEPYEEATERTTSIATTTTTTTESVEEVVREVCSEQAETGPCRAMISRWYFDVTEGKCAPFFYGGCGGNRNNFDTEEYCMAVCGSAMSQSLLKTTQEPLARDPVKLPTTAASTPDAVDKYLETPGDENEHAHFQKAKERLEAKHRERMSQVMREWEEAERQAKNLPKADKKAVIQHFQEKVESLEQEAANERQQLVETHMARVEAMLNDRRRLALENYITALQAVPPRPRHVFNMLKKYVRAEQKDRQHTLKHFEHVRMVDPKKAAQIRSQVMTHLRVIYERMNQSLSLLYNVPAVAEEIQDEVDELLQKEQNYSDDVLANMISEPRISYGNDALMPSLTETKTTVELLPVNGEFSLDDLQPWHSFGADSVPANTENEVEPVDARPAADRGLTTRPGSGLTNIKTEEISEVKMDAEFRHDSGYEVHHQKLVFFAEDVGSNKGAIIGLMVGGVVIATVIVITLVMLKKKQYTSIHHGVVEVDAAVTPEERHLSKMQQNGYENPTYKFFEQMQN
T1 sequence (P22303 whole entry): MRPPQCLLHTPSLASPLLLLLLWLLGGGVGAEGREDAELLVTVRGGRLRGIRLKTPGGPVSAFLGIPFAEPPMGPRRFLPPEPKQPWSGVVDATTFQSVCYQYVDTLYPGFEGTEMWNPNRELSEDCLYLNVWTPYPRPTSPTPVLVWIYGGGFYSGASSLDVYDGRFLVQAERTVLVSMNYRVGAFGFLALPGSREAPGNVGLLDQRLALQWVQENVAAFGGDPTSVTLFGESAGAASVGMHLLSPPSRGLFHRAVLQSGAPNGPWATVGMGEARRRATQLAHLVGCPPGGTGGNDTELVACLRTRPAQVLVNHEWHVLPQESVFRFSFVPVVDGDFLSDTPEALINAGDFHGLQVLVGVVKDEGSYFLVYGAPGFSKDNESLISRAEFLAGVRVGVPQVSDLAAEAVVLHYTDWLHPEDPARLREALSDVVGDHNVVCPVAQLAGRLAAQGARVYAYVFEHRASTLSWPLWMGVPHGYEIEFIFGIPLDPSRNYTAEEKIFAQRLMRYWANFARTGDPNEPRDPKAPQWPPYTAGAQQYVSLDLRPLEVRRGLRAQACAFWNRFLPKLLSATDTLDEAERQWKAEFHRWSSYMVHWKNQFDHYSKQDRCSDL
Chain of Cholinesterase (P06276 whole entry): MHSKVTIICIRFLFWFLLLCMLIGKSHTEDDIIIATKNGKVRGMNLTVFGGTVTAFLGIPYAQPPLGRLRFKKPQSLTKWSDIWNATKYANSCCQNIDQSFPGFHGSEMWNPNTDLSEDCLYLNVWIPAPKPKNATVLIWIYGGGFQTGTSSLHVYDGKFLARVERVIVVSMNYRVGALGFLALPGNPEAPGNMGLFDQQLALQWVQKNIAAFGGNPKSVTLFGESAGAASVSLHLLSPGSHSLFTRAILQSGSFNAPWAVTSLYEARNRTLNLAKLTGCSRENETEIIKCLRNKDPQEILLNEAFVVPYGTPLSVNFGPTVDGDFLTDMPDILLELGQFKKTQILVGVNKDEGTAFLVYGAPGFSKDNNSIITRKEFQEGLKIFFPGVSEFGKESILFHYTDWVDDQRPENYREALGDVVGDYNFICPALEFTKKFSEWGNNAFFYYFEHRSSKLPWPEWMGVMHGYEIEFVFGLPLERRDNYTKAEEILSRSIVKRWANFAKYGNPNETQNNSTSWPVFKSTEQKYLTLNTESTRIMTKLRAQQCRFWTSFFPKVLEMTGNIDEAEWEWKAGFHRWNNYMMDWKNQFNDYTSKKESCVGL

Fc1ccc(-c2nnc(N3CCN(c4ccccn4)CC3)o2)c(F)c1
Cmax [1]: 49.8 ng/mL | inhibition (Acetylcholinesterase [2]): Active | inhibition (Acetylcholinesterase [3]): Active | Papp at 18 h, 25 ug/ml [4]: 6.1 ×10⁻⁶ cm/s | MTD [5]: 100 mg/kg | MRT [6]: 18.4 h | IC50 (Cholinesterase): 787 nM | Activity (Rattus norvegicus [7]): Active | Activity [8]: 1.84 nm | inhibition (Rattus norvegicus [9]): Active | inhibition [10]: Active | Activity [11]: 44.2 nm | half-life [12]: 739 min | Tmax [13]: 5.33 h | Flu intensity [14]: 0.3 | Activity (Rattus norvegicus [15]): Active | Activity (Rattus norvegicus [16]): Active | Activity (Rattus norvegicus [17]): Dose-dependent effect | Ki (Acetylcholinesterase [18]): 30 nM | Activity (Rattus norvegicus [19]): Active | AUC(0-t) at 72 h [20]: 721 ng·h/mL | Activity [21]: Non-Toxic | Activity (Rattus norvegicus [22]): Active | Activity (SH-SY5Y): 69% | Flu intensity (Acetylcholinesterase [23]): 0.33
